Measured values: patent US20140155389A1, “BICYCLIC INHIBITORS OF ALK” (ABBVIE INC., priority 2011, published 2014)

target: T1, ALK (Homo sapiens, UniProt Q9UM73); test: ALK kinase assay (HTRF); assay type: biochemical; settings: apparent Ki from IC50 by Cheng-Prusoff; ALK (Millipore) 3 nM or 4 nM, 50 μM ATP, 1 h at room temperature; read-out: HTRF_ALK Human - Ki
T1 construct: purchased Millipore
T1 sequence (Q9UM73 19-1620): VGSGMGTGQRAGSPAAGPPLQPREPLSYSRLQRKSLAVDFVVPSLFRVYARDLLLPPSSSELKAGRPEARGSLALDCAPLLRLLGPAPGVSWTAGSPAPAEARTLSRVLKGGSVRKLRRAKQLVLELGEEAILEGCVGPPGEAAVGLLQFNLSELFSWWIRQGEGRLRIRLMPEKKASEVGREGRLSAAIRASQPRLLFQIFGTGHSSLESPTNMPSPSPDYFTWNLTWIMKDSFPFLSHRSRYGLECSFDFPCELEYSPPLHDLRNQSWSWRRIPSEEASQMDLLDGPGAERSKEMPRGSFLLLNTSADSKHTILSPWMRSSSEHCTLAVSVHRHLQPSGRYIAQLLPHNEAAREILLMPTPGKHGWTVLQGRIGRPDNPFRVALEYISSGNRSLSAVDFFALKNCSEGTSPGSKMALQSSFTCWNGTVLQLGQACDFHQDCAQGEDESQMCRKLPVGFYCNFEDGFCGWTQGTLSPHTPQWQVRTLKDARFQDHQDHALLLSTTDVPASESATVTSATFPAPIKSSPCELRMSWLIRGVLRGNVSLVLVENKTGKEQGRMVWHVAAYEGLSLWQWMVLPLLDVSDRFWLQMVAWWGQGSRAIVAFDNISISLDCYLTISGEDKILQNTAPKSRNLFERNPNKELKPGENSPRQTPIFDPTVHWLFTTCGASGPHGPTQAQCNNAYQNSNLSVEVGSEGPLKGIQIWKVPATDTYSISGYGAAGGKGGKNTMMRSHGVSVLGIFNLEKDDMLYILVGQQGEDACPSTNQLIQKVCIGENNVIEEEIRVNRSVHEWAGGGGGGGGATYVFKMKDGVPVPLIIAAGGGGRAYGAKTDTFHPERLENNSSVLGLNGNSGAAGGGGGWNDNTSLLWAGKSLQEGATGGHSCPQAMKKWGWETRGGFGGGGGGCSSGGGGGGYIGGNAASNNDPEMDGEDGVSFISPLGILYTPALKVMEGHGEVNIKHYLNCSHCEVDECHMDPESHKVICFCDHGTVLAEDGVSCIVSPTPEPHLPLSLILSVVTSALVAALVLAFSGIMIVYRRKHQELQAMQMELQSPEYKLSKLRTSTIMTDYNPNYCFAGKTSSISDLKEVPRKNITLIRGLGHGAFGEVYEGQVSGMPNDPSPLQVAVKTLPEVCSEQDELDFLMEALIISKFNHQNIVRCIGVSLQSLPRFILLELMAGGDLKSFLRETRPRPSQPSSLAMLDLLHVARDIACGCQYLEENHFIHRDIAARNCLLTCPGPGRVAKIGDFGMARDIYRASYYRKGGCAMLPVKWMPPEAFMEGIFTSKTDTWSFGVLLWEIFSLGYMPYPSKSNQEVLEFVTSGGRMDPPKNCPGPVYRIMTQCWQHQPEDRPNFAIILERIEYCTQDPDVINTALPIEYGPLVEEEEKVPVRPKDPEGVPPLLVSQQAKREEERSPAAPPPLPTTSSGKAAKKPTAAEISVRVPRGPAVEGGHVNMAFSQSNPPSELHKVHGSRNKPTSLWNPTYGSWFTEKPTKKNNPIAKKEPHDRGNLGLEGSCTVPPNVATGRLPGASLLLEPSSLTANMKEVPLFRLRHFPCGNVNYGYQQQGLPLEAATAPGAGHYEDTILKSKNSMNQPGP

SMILES	Ki [nM]
COc1cc(C2CCNCC2)ccc1Nc1nc(NCC2CC2)cc2cnnc(O)c12 [Example 99, 7-[(cyclopropylmethyl)amino]-5-{[2-methoxy-4-(piperidin-4-yl)phenyl]amino}pyrido[3,4-d]pyridazin-4-ol]	6
COc1cc(N2CCNCC2)ccc1Nc1nc(Oc2ccccc2Cl)cc2cn[nH]c(=O)c12 [Example 62, 7-(2-chlorophenoxy)-5-{[2-methoxy-4-(piperazin-1-yl)phenyl]amino}pyrido[3,4-d]pyridazin-4(3H)-one]	2
COc1cc(N2CCNCC2)ccc1Nc1nc(NC2CCCCC2)cc2cn[nH]c(=O)c12 [Example 46, 7-(cyclohexylamino)-5-{[2-methoxy-4-(piperazin-1-yl)phenyl]amino}pyrido[3,4-d]pyridazin-4(3H)-one]	3
COc1cc(N2CCNCC2)ccc1Nc1nc(Nc2ccccc2F)cc2cn[nH]c(=O)c12 [Example 48, 7-[(2-fluorophenyl)amino]-5-{[2-methoxy-4-(piperazin-1-yl)phenyl]amino}pyrido[3,4-d]pyridazin-4(3H)-one]	4
COc1cc(C2CCNCC2)ccc1Nc1cc(CCN2CCOCC2)nc2cn[nH]c(=O)c12 [Example 102, 4-{[2-methoxy-4-(piperidin-4-yl)phenyl]amino}-2-[2-(morpholin-4-yl)ethyl]pyrido[2,3-d]pyridazin-5(6H)-one]	331
COc1cc(CN2CCNCC2)ccc1Nc1cc(Cc2ccccc2Cl)nc2cn[nH]c(=O)c12 [Example 92, 2-(2-chlorobenzyl)-4-{[2-methoxy-4-(piperazin-1-ylmethyl)phenyl]amino}pyrido[2,3-d]pyridazin-5(6H)-one]	15
COc1cc(C2CCNCC2)ccc1Nc1cc(Cc2cccc(F)c2F)nc2cn[nH]c(=O)c12 [Example 111, 2-(2,3-difluorobenzyl)-4-{[2-methoxy-4-(piperidin-4-yl)phenyl]amino}pyrido[2,3-d]pyridazin-5(6H)-one]	15
COc1cc(N2CCNCC2)ccc1Nc1nc(NCCN(C)C)cc2cn[nH]c(=O)c12 [Example 45, 7-{[2-(dimethylamino)ethyl]amino}-5-{[2-methoxy-4-(piperazin-1-yl)phenyl]amino}pyrido[3,4-d]pyridazin-4(3H)-one]	51
COc1cc(N2CCNCC2)ccc1Nc1nc(Nc2ccccc2S(=O)(=O)C(C)C)cc2cn[nH]c(=O)c12 [Example 22, 5-{[2-methoxy-4-(piperazin-1-yl)phenyl]amino}-7-{[2-(propan-2-ylsulfonyl)phenyl]amino}pyrido[3,4-d]pyridazin-4(3H)-one]	2
COc1cc(CN2CCOCC2)ccc1Nc1cc(Cc2ccccc2Cl)nc2cnnc(O)c12 [Example 94, 2-(2-chlorobenzyl)-4-{[2-methoxy-4-(morpholin-4-ylmethyl)phenyl]amino}pyrido[2,3-d]pyridazin-5-ol]	51
COc1cc2c(cc1Nc1cc(Cc3ccccc3Cl)nc3cnnc(O)c13)CNCC2 [Example 91, 2-(2-chlorobenzyl)-4-[(6-methoxy-1,2,3,4-tetrahydroisoquinolin-7-yl)amino]pyrido[2,3-d]pyridazin-5-ol]	55
COc1cc(C(=O)N2CCCC2)ccc1Nc1nc(Oc2ccccc2Cl)cc2cnnc(O)c12 [Example 105, (4-{[7-(2-chlorophenoxy)-4-hydroxypyrido[3,4-d]pyridazin-5-yl]amino}-3-methoxyphenyl)(pyrrolidin-1-yl)methanone]	> 470
O=c1[nH]ncc2cc(N3CCC(O)CC3)nc(Nc3ccc(CN4CCCC4)cc3Cl)c12 [Example 96, 5-{[2-chloro-4-(pyrrolidin-1-ylmethyl)phenyl]amino}-7-(4-hydroxypiperidin-1-yl)pyrido[3,4-d]pyridazin-4(3H)-one]	9
COc1cc(C2CCNCC2)ccc1Nc1cc(Cc2cccc(Cl)c2Cl)nc2cn[nH]c(=O)c12 [Example 108, 2-(2,3-dichlorobenzyl)-4-{[2-methoxy-4-(piperidin-4-yl)phenyl]amino}pyrido[2,3-d]pyridazin-5(6H)-one]	8
COc1cc(N2CCNCC2)ccc1Nc1nc(Oc2c(Cl)cccc2Cl)cc2cn[nH]c(=O)c12 [Example 63, 7-(2,6-dichlorophenoxy)-5-{[2-methoxy-4-(piperazin-1-yl)phenyl]amino}pyrido[3,4-d]pyridazin-4(3H)-one]	1
O=C1NCCNc2cc(Cc3c(Cl)cccc3Cl)nc(Nc3ccc(N4CCNCC4)cc3)c21 [Example 6, 8-(2,6-dichlorobenzyl)-6-{[4-(piperazin-1-yl)phenyl]amino}-1,2,3,4-tetrahydro-5H-pyrido[4,3-e][1,4]diazepin-5-one]	602
CCOc1cc(C2CCNCC2)ccc1Nc1nc(Oc2ccccc2Cl)cc2cn[nH]c(=O)c12 [Example 106, 7-(2-chlorophenoxy)-5-{[2-ethoxy-4-(piperidin-4-yl)phenyl]amino}pyrido[3,4-d]pyridazin-4(3H)-one]	21
COc1cc(N2CCNCC2)ccc1Nc1nc(Oc2c(F)cccc2F)cc2cn[nH]c(=O)c12 [Example 75, 7-(2,6-difluorophenoxy)-5-{[2-methoxy-4-(piperazin-1-yl)phenyl]amino}pyrido[3,4-d]pyridazin-4(3H)-one]	4
Cc1c(Nc2nc(Cc3c(Cl)cccc3Cl)cc3cn[nH]c(=O)c23)ccc(N2CCNCC2)c1C [Example 69, 7-(2,6-dichlorobenzyl)-5-{[2,3-dimethyl-4-(piperazin-1-yl)phenyl]amino}pyrido[3,4-d]pyridazin-4(3H)-one]	1
O=c1[nH]ncc2cc(Oc3ccccc3Cl)nc(Nc3ccc(C4CCNCC4)cn3)c12 [Example 118, 7-(2-chlorophenoxy)-5-{[5-(piperidin-4-yl)pyridin-2-yl]amino}pyrido[3,4-d]pyridazin-4(3H)-one]	15
O=C1NCCNc2nc(Cc3c(Cl)cccc3Cl)cc(Nc3ccc(N4CCNCC4)cc3)c21 [Example 4, 8-(2,6-dichlorobenzyl)-6-{[4-(piperazin-1-yl)phenyl]amino}-1,2,3,4-tetrahydro-5H-pyrido[2,3-e][1,4]diazepin-5-one]	940
COc1cc(N2CCNCC2)ccc1Nc1nc(Oc2cccc(Cl)c2Cl)cc2cn[nH]c(=O)c12 [Example 79, 7-(2,3-dichlorophenoxy)-5-{[2-methoxy-4-(piperazin-1-yl)phenyl]amino}pyrido[3,4-d]pyridazin-4(3H)-one]	5

Results, then the compound that gave them:

Ki [nM]	SMILES
4	COc1cc(N2CCNCC2)ccc1Nc1nc(Nc2cc(Cl)ccc2Cl)cc2cn[nH]c(=O)c12 [Example 28, 7-[(2,5-dichlorophenyl)amino]-5-{[2-methoxy-4-(piperazin-1-yl)phenyl]amino}pyrido[3,4-d]pyridazin-4(3H)-one]
4	COc1cc(N2CCNCC2)ccc1Nc1nc(Nc2cccc(Cl)c2F)cc2cnnc(O)c12 [Example 54, 7-[(3-chloro-2-fluorophenyl)amino]-5-{[2-methoxy-4-(piperazin-1-yl)phenyl]amino}pyrido[3,4-d]pyridazin-4-ol]
1	COc1cc(N2CCNCC2)ccc1Nc1nc(Nc2c(Cl)cc(F)cc2Cl)cc2cnnc(O)c12 [Example 35, 7-[(2,6-dichloro-4-fluorophenyl)amino]-5-{[2-methoxy-4-(piperazin-1-yl)phenyl]amino}pyrido[3,4-d]pyridazin-4-ol]
4	COc1cc(N2CCNCC2)ccc1Nc1nc(Oc2cccc(F)c2F)cc2cnnc(O)c12 [Example 78, 7-(2,3-difluorophenoxy)-5-{[2-methoxy-4-(piperazin-1-yl)phenyl]amino}pyrido[3,4-d]pyridazin-4-ol]
4	COc1cc(N2CCNCC2)ccc1Nc1nc(Nc2ccccc2Cl)cc2cn[nH]c(=O)c12 [Example 24, 7-[(2-chlorophenyl)amino]-5-{[2-methoxy-4-(piperazin-1-yl)phenyl]amino}pyrido[3,4-d]pyridazin-4(3H)-one]
6	COc1cc(N2CCNCC2)ccc1Nc1nc(Nc2cc(Cl)ccc2F)cc2cn[nH]c(=O)c12 [Example 25, 7-[(5-chloro-2-fluorophenyl)amino]-5-{[2-methoxy-4-(piperazin-1-yl)phenyl]amino}pyrido[3,4-d]pyridazin-4(3H)-one]
2	COc1cc(N2CCNCC2)ccc1Nc1nc(Nc2ccc(F)c(Cl)c2Cl)cc2cnnc(O)c12 [Example 67, 7-[(2,3-dichloro-4-fluorophenyl)amino]-5-{[2-methoxy-4-(piperazin-1-yl)phenyl]amino}pyrido[3,4-d]pyridazin-4-ol]
3	COc1cc(N2CCNCC2)ccc1Nc1nc(Nc2cccc(F)c2F)cc2cn[nH]c(=O)c12 [Example 37, 7-[(2,3-difluorophenyl)amino]-5-{[2-methoxy-4-(piperazin-1-yl)phenyl]amino}pyrido[3,4-d]pyridazin-4(3H)-one]
1	COc1cc(N2CCNCC2)ccc1Nc1nc(Nc2c(F)cc(F)cc2Cl)cc2cnnc(O)c12 [Example 71, 7-[(2-chloro-4,6-difluorophenyl)amino]-5-{[2-methoxy-4-(piperazin-1-yl)phenyl]amino}pyrido[3,4-d]pyridazin-4-ol]
2	COc1cc(N2CCNCC2)ccc1Nc1nc(N[C@H]2CC[C@H](O)CC2)cc2cnnc(O)c12 [Example 86, 7-[(trans-4-hydroxycyclohexyl)amino]-5-{[2-methoxy-4-(piperazin-1-yl)phenyl]amino}pyrido[3,4-d]pyridazin-4-ol]
1	COc1cc(N2CCNCC2)ccc1Nc1nc(Nc2c(F)cccc2Cl)cc2cn[nH]c(=O)c12 [Example 29, 7-[(2-chloro-6-fluorophenyl)amino]-5-{[2-methoxy-4-(piperazin-1-yl)phenyl]amino}pyrido[3,4-d]pyridazin-4(3H)-one]
58	COc1ccccc1Nc1nc(Nc2ccc(N3CCNCC3)cc2)cc2cnnc(O)c12 [Example 113, 5-[(2-methoxyphenyl)amino]-7-{[4-(piperazin-1-yl)phenyl]amino}pyrido[3,4-d]pyridazin-4-ol]
19	COc1cc(N2CCNCC2)ccc1Nc1nc(Nc2cc(Cl)cc(Cl)c2)cc2cn[nH]c(=O)c12 [Example 31, 7-[(3,5-dichlorophenyl)amino]-5-{[2-methoxy-4-(piperazin-1-yl)phenyl]amino}pyrido[3,4-d]pyridazin-4(3H)-one]
